Test results as given in paper PMC7932537, “Quantitative profiling of protease specificity” (PLoS Computational Biology, 2021).

How the values were obtained:
MMP-9 = test: N-terminomic (TMT) analysis of MMP-treated HEK293 secretome: isotopic enrichment of novel N-termini; type: biochemical, human; settings: for isotopic enrichment (log2(ratio)) (acc.to MMP9): HEK293 proteins; for isotopic enrichment (log2(ratio)): MMP9 cleavages in HEK293 cell proteins, determined by LC-MS/MS, log2(ratio) range (>3σ, 2σ-3σ, 1σ-2σ)
Experimental: (§1) This was done to achieve a reasonable compromise between the false positive and false negative rates based on the statistical model developed by the authors. […] (See Methods for details).
(§2) HEK293 cells were seeded in 150-mm tissue culture dishes (Corning) and grown to confluence. The confluent cultures were washed with PBS several times to remove serum proteins and kept in serum-free DMEM supplemented with 1 μM GM6001 for 72 hours at 37 C, 5% CO2. The conditioned media was centrifuged at 10,000 x g for 30 minutes at 4 C and concentrated ~100-fold using Centricon Plus-70 (AMD Millipore) 3-kDa m.w. cut-off ultrafilter, and the buffer was exchanged to 50 mM HEPES pH 7.0 containing 150 mM NaCl and 10 mM CaCl2 (Reaction Buffer) using a PD-10 desalting column (GE Healthcare). Aliquots containing 240 μg total protein were incubated at 37 C in the presence of 750 nM MMP2 or 9 or the Reaction Buffer alone for 2 hours. Each reaction was carried out in duplicate. The reactions were stopped by addition of 20 mM EDTA and subjected to denaturation/reduction (4M Urea and 10 mM TCEP, 1 h, 22°C) and alkylation (20 mM iodoacetamide, 30 min, 22°C, in dark). […] The TMT-labeled samples were pooled together, and subjected to TCA precipitation (20% TCA, 16 h, 4°C). Each pellet was washed with -20°C acetone, recovered in 50 mM Tris-HCl pH 8.0, and then digested with trypsin/Lys-C (Promega) for 16 h at 37°C. Digestions were stopped with 0.2% TFA and centrifuged to remove insoluble material. The supernatants were then desalted using Sep-Pak C18 cartridge (50 mg), and then lyophilized.
(§3) Dried pooled sample was reconstituted in 20 mM ammonium formate pH ~10 and fractionated using a Waters Acquity BEH C18 column (2.1x 15 cm, 1.7 μm pore size) mounted on an M-Class Ultra Performance Liquid Chromatography (UPLC) system (Waters). […] A total of 32 fractions were collected and pooled in a non-contiguous manner into 16 total fractions. Pooled fractions were dried to completeness in a SpeedVac concentrator prior to mass spectrometry analysis.
(§4) Dried peptide fractions were reconstituted with 2% ACN-0.1% FA and analyzed by LC-MS/MS using a Proxeon EASY nanoLC system (Thermo Fisher Scientific) coupled to a Q-Exactive Plus mass spectrometer (Thermo Fisher Scientific). […] The mass spectrometer was operated in positive data-dependent acquisition mode. MS1 spectra were measured with a resolution of 70,000 (AGC target: 1e6; mass range: 350–1700 m/z).
(§5) The false discovery rate (FDR) filter for spectrum and protein identification was set to 1%. Carbamidomethylation of cysteines was searched as a fixed modification, while oxidation of methionines and N-terminal acetylation were searched as variable modifications. Enzyme was set to trypsin in a semispecific mode and a maximum of two missed cleavages was allowed for searching. To obtain quantification of the TMT-labeled N-termini, two independent searches were performed–one with TMT10plex MS2 N-terminal reporter quantification and the other for quantification of N-terminal and lysine sidechain.

MMP-2 = test: as above; type: biochemical, human; settings: for isotopic enrichment (log2(ratio)): MMP2 cleavages in HEK293 cell proteins, determined by LC-MS/MS, novel N-termini, sections log2(ratio) >3σ, 2σ-3σ, 1σ-2σ, RP above 4.5
Experimental: as §1, §2, §3, §4, §5

[1] = MMP9, common set of MMP2-9 selectome, LC-MS/MS
[2] = MS detected cleavage sequence, common MMP2-9 selectome
[3] = MMP2 cleaved HEK293 proteins, common set of MMP2-9 selectome, LC-MS/MS
[4] = MS detected cleavage sequence, HEK293 proteins, common MMP2-9 selectome
[5] = MS detected cleavage sequence, unique part of MMP2 selectome
[6] = MS detected cleavage sequence, HEK293 proteins, unique part of MMP2 selectome

Substance | isotopic enrichment (log2(ratio)) (acc.to MMP9) (MMP-9; [1]) | isotopic enrichment (log2(ratio)) (MMP-9) | isotopic enrichment (log2(ratio)) (acc.to MMP9) (MMP-9; [2]) | isotopic enrichment (log2(ratio)) (acc.to MMP2) (MMP-2; [3]) | isotopic enrichment (log2(ratio)) (acc.to MMP2) (MMP-2; [4]) | isotopic enrichment (log2(ratio)) (acc.to MMP9) (MMP-9; [5]) | isotopic enrichment (log2(ratio)) (acc.to MMP2) (MMP-2; [6]) | isotopic enrichment (log2(ratio)) (MMP-2)
DAPRA-VFPSIV | 1.811 | 1.811 | 1.811 log2(ratio) | 1.669 | 1.669 log2(ratio) | – | – | –
HLNRG-FHQEVF | – | – | – | – | – | 1.782 log2(ratio) | 1.531 log2(ratio) | –
NFWGA-LSADGY | – | – | – | – | – | 0.9855 log2(ratio) | 1.683 log2(ratio) | –
LPAMP-MQGGAQ | 3.876 | 3.876 | 3.876 log2(ratio) | 3.329 | 3.329 log2(ratio) | – | – | –
NFLSW-LYNDSP | 1.57 | 1.57 | 1.57 log2(ratio) | 1.971 | 1.971 log2(ratio) | – | – | –
ISPGM-IKDCGA | 2.036 | 2.036 | 2.036 log2(ratio) | 1.183 | 1.183 log2(ratio) | – | – | –
PFPDG-LAEDID | – | 3.878 | 3.878 log2(ratio) | – | 0.9928 log2(ratio) | – | – | –
RKATP-YTFPGG | 1.753 | 1.753 | 1.753 log2(ratio) | 1.541 | 1.541 log2(ratio) | – | – | –
ETAIN-ITTYPD | 2.536 | 2.536 | 2.536 log2(ratio) | 1.84 | 1.84 log2(ratio) | – | – | –
GFGRG-LSDKKS | 2.021 | 2.021 | 2.021 log2(ratio) | 1.9486 | 1.9486 log2(ratio) | – | – | –
PALAY-LASAPP | – | – | – | – | – | 0.4436 log2(ratio) | 1.345 log2(ratio) | –
SHLGR-YLAADK | – | – | – | – | – | -1.0291 log2(ratio) | 2.483 log2(ratio) | –
TDPSK-LDSGKE | 2.9782 | 2.9782 | 2.9782 log2(ratio) | 1.911 | 1.911 log2(ratio) | – | – | –
FSVSS-LAEGSV | 1.22 | – | – | 1.257 | – | – | – | 1.257 log2(ratio)
DMIDN-LLSPDL | – | – | – | – | – | 1.029 log2(ratio) | 1.245 log2(ratio) | –
SSAAA-LSLCEG | 0.3785 | – | – | 1.036 | – | – | – | 1.036 log2(ratio)

Substance | isotopic enrichment (log2(ratio)) (acc.to MMP9) (MMP-9; [1]) | isotopic enrichment (log2(ratio)) (MMP-9) | isotopic enrichment (log2(ratio)) (acc.to MMP9) (MMP-9; [2]) | isotopic enrichment (log2(ratio)) (acc.to MMP2) (MMP-2; [3]) | isotopic enrichment (log2(ratio)) (acc.to MMP2) (MMP-2; [4]) | isotopic enrichment (log2(ratio)) (acc.to MMP9) (MMP-9; [5]) | isotopic enrichment (log2(ratio)) (acc.to MMP2) (MMP-2; [6]) | isotopic enrichment (log2(ratio)) (MMP-2)
TQQAQ-LAAAAE | – | – | – | – | – | 0.8319 log2(ratio) | 2.74 log2(ratio) | –
GYIGT-YCGQPV | – | – | – | – | – | 2.478 log2(ratio) | 2.548 log2(ratio) | –
FSLFG-LGGEPG | 2.104 | 2.104 | 2.104 log2(ratio) | 1.417 | 1.417 log2(ratio) | – | – | –
EHPVL-LTEAPL | – | 3.462 | 3.462 log2(ratio) | – | 1.599 log2(ratio) | – | – | –
ARPNS-MVVEHP | 3.297 | 3.297 | 3.297 log2(ratio) | 2.409 | 2.409 log2(ratio) | – | – | –
ADIAF-LIDGSF | 0.8797 | – | – | 1.124 | – | – | – | 1.124 log2(ratio)
GRSAP-LAAGCP | – | – | – | – | – | 3.246 log2(ratio) | 3.5097 log2(ratio) | –
GMPGE-ISEHEG | 2.131 | 2.131 | 2.131 log2(ratio) | 2.198 | 2.198 log2(ratio) | – | – | –
YNPMA-LYGSVP | – | 1.709 | 1.709 log2(ratio) | – | 0.669 log2(ratio) | – | – | –
SLARA-YSSFNP | 2.539 | 2.539 | 2.539 log2(ratio) | 2.269 | 2.269 log2(ratio) | – | – | –
MSPQL-LYDAAP | – | 1.465 | 1.465 log2(ratio) | – | 0.5656 log2(ratio) | – | – | –
NFIQS-IISTVE | – | – | – | – | – | 1.111 log2(ratio) | – | 0.903 log2(ratio)
DMAAA-MKAVTE | 1.328 | – | – | 1.766 | – | – | – | 1.766 log2(ratio)
APPAA-VAAVAG | – | 1.731 | 1.731 log2(ratio) | – | 2.4957 log2(ratio) | – | – | –
SEPAD-FKVDED | 1.104 | – | – | 1.891 | – | – | – | 1.891 log2(ratio)
PQAKA-LLQDKD | 1.48 | 1.48 | 1.48 log2(ratio) | – | 0.9928 log2(ratio) | – | – | –
